Test results: US8148092B2, “System and method for performing G protein coupled receptor (GPCR) cell assays using waveguide-grating sensors” (Corning Incorporated, priority 2005, dated 2012)

Experiments:
[1] = tested on: CHO cells; assay: optical LID (waveguide grating biosensor) mass redistribution response of adherent CHO cells after compound addition; format: cell-based, Chinese Hamster; conditions: for ligand-induced mass redistribution signal (total change in response): CHO cells, compound 10 μM, FIGS. 13, 15, 18
Description: Referring to FIG. 3, there is shown a flowchart illustrating the basic steps of a method 300 for monitoring in real time the mass redistribution due to an agonist-induced GPCR activation within living cells 108 using an optical LID biosensor 104 in accordance with the present invention. The method 300 includes the following steps: (a) provide an optical LID biosensor 104 (step 302); (b) place a certain number of living cells 108 in a medium which covers the optical LID biosensor 104 such that the living cells 108 attach onto the surface 110 of the optical LID biosensor 104 (step 304); (c) optionally apply a buffer solution at least once into the cell medium (step 306); (d) apply a solution containing a compound (agonist) into the cell medium (step 308); and (e) interrogate the optical LID biosensor 104 and monitor the time dependent optical response 201 of the living cells 108 cultured on the optical LID biosensor 104 (step 310).
It is known that CHO cells 108 endogenously express beta adrenergic receptors, alpha2-adrenergic receptors, P2Y receptors, as well as beta-arrestin and GRKs. It is also known that muscarinic receptors are endogenously expressed at very low level in the CHO cells 108. In this experiment, approximately ˜5×10^4 CHO cells 108 were placed within each well of a microplate that contained an array of optical LID biosensors 104. The CHO cells 108 were then cultured in 150 μl serum medium for 24 hours to ensure that the CHO cells 108 became adherent to the substrate surface 110.
Since muscarinic receptors are endogenously expressed at very low level in CHO cells 108; oxotremorine M, agonist for muscarinic receptors, served as a control. Each of these agonists was directly applied to a different one of the wells which contained the serum medium. The optical responses were then collected by the optical LID system 100.

[2] = tested on: CHO cells with stably overexpressed rat muscarinic receptor subtype 1 (M1 CHO); assay: optical LID mass redistribution response of CHO cells with stably overexpressed rat muscarinic receptor subtype 1 after compound addition; format: cell-based, Chinese Hamster; conditions: compound 10 μM, compared with CHO cells, FIGS. 14, 15, 18
Procedure: FIG. 14 a time-dependent LID response of engineered Chinese Hamster Ovary (CHO) cells with over-expressed rat muscarnic receptor subtype 1 (thus this cell line is termed as M1 CHO) before and after compound addition. The compound concentration used is 10 μM for all compounds.

Row | SMILES | ligand-induced mass redistribution signal (total change in response) [1] | ligand-induced mass redistribution signal (total change in response) [2] | agonist-induced time-dependent optical LID response ([1]; CHO cells in serum medium, ATP 100 μM, epinephrine 100 μM, clonidine 10 μM, oxotremorine M 10 μM, FIG. 10)
1 | CCNC(=O)[C@H]1O[C@@H](n2cnc3c(N)ncnc32)[C@H](O)[C@@H]1O [NECA] | results in mass redistribution signals | results in mass redistribution signals | –
2 | Clc1cccc(Cl)c1N=C1NCCN1 [clonidine] | induced mass redistribution signals | – | –
3 | C[N+](C)(C)CC#CCN1CCCC1=O [oxotremorine M] | – | significantly larger responses in M1-CHO cells | almost no cell response
4 | Cc1scc2c1N(C(=O)CN1CCN(C)CC1)c1ccccc1NC2=O [telenzepine] | – | not its antagonist (telenzepine) results in significantly larger responses | –
